Data as given in patent US20250163104A1, “MACROCYCLIC IMMUNOMODULATORS” (priority 2021, published 2025).
Where a SMILES comes first, the peptide text is derived from it. Bridges are numbered along the chain shown (N, C = ends). [ ]: non-standard residue; d: D form. The star is where a group is joined. ξ: configuration not given here. Phe(4-COOH) = N[C@@H](Cc1ccc(C(=O)O)cc1)C(=O)O; Bip = N[C@@H](Cc1ccc(-c2ccccc2)cc1)C(=O)O; Ala(2-furyl) = N[C@@H](Cc1ccco1)C(=O)O; Phe(3-Me) = Cc1cccc(C[C@H](N)C(=O)O)c1; Val(3-OH) = CC(C)(O)[C@H](N)C(=O)O; 4Pal = N[C@@H](Cc1ccncc1)C(=O)O; Cha = N[C@@H](CC1CCCCC1)C(=O)O; Thr(3ξ) = CC(O)[C@H](N)C(=O)O; Carboxymethyl = O=C(O)C*; Orn = NCCC[C@H](N)C(=O)O; Dab = NCC[C@H](N)C(=O)O; NH(CH2)3NH2 = NCCCN*

target: T1, human PD-1 / PD-L1-Ig binding on Jurkat cell line over-expressing human PD-1 (Jurkat-PD-1) (Homo sapiens, UniProt Q15116); experiment: Jurkat-PD-1 Cell Binding High-Content Screening Assay (CBA); type: cell-based; details: Jurkat-PD-1 cells, PE-labeled PD-L1-Ig 20 nM final; read-out: Jurkat HPD1_PDL1 IC50
T1 construct: expressed in transfected cells; host or cells: Jurkat
Method in brief: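 Jurkat cells over-expressing human PD-1, in DMEM/10% FCS, pre-incubated with compound 2 h at 37° C. PE-labeled human PD-L1-Ig (20 nM final) added for 1 h; cells fixed in paraformaldehyde with Hoechst 33342 nuclear stain, washed, and bound fluorescence quantified by high-content imaging.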

T1 sequence (Q15116 25-288): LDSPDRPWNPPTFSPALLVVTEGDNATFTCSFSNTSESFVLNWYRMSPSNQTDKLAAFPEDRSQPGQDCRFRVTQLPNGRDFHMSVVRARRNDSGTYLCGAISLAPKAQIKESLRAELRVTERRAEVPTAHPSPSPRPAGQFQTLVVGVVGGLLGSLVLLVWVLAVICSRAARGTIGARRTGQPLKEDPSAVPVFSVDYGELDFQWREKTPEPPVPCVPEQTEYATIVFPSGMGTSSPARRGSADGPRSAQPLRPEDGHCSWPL

**Q.** For Cc1cccc(C[C@@H]2NC(=O)[C@H](CC(=O)O)NC(=O)[C@H](Cc3ccc(OCC(=O)O)cc3)NC(=O)[C@H](Cc3ccncc3)NC(=O)CSC[C@@H](C(=O)N[C@@H](CCN)C(N)=O)NC(=O)[C@H](CO)NC(=O)[C@H](C(C)(C)O)NC(=O)[C@H](CC3CCCCC3)NC(=O)[C@H](CCN)NC(=O)[C@@H](CC(C)C)NC(=O)[C@H](CCC(N)=O)NC(=O)[C@H](Cc3ccc(OCC(=O)O)cc3)NC(=O)[C@H](Cc3ccc(-c4ccccc4)cc3)NC(=O)[C@H](Cc3ccc(OCC(=O)O)cc3)NC2=O)c1 [Compound 2642] ({CH2CO}-[4Pal]Y(Carboxymethyl)D[Phe(3-Me)]Y(Carboxymethyl)[Bip]Y(Carboxymethyl)Q[dL][Dab][Cha][Val(3-OH)]SC[Dab]-NH2; thioether N-14), which IC50 is on record?
**A.** 3.5 nM

**Q.** How did the IC50 turn out when Cc1cccc(C[C@@H]2NC(=O)[C@H](CC(=O)O)NC(=O)[C@H](Cc3ccc(OCC(=O)O)cc3)NC(=O)[C@H](Cc3ccncc3)NC(=O)CSC[C@@H](C(=O)N[C@@H](CCN)C(N)=O)NC(=O)[C@H](CO)NC(=O)[C@H](C(C)(C)O)NC(=O)[C@H](CC3CCCCC3)NC(=O)[C@H](CCN)NC(=O)[C@@H](CC(C)C)NC(=O)[C@H](CCC(N)=O)NC(=O)[C@H](Cc3ccc(C(=O)O)cc3)NC(=O)[C@H](Cc3ccc(-c4ccccc4)cc3)NC(=O)[C@H](Cc3ccc(C(=O)O)cc3)NC2=O)c1 [Compound 2643] ({CH2CO}-[4Pal]Y(Carboxymethyl)D[Phe(3-Me)][Phe(4-COOH)][Bip][Phe(4-COOH)]Q[dL][Dab][Cha][Val(3-OH)]SC[Dab]-NH2; thioether N-14) was run?
**A.** 7.3 nM

**Q.** How did the IC50 turn out when Cc1cccc(C[C@@H]2NC(=O)[C@H](CC(=O)O)NC(=O)[C@H](Cc3ccc(OCC(=O)O)cc3)NC(=O)[C@H](CCN)NC(=O)CSC[C@@H](C(=O)N[C@@H](CCN)C(N)=O)NC(=O)[C@H](Cc3cnc[nH]3)NC(=O)[C@H](C(C)C)NC(=O)[C@H](CC3CCCCC3)NC(=O)[C@H](CCN)NC(=O)[C@@H](CC(C)C)NC(=O)[C@H](CCCN)NC(=O)[C@H](Cc3ccc(OCC(=O)O)cc3)NC(=O)[C@H](Cc3ccc(-c4ccccc4)cc3)NC(=O)[C@H](C(C)C)NC2=O)c1 [Compound 2644] ({CH2CO}-[Dab]Y(Carboxymethyl)D[Phe(3-Me)]V[Bip]Y(Carboxymethyl)[Orn][dL][Dab][Cha]VHC[Dab]-NH2; thioether N-14) was run?
**A.** 13.6 nM

**Q.** With Cc1cccc(C[C@@H]2NC(=O)[C@H](CC(=O)O)NC(=O)[C@H](Cc3ccc(OCC(=O)O)cc3)NC(=O)[C@H](Cc3ccncc3)NC(=O)CSC[C@@H](C(=O)N[C@@H](CCN)C(N)=O)NC(=O)[C@H](CO)NC(=O)[C@H](C(C)(C)O)NC(=O)[C@H](CC3CCCCC3)NC(=O)[C@H](Cc3cnc[nH]3)NC(=O)[C@@H](CC(C)C)NC(=O)[C@H](CCCN)NC(=O)[C@H](Cc3ccc(OCC(=O)O)cc3)NC(=O)[C@H](Cc3ccc(-c4ccccc4)cc3)NC(=O)[C@H](Cc3ccc(OCC(=O)O)cc3)NC2=O)c1 [Compound 2645] ({CH2CO}-[4Pal]Y(Carboxymethyl)D[Phe(3-Me)]Y(Carboxymethyl)[Bip]Y(Carboxymethyl)[Orn][dL]H[Cha][Val(3-OH)]SC[Dab]-NH2; thioether N-14) as the compound, how does the IC50 read?
**A.** 11.7 nM

**Q.** For Cc1cccc(C[C@@H]2NC(=O)[C@H](CC(=O)O)NC(=O)[C@H](Cc3ccc(OCC(=O)O)cc3)NC(=O)[C@H](Cc3ccco3)NC(=O)CSC[C@@H](C(=O)N[C@@H](CCN)C(N)=O)NC(=O)[C@H](Cc3cnc[nH]3)NC(=O)[C@H](C(C)(C)O)NC(=O)[C@H](CC3CCCCC3)NC(=O)[C@H](CCN)NC(=O)[C@@H](CC(C)C)NC(=O)[C@H](CCCN)NC(=O)[C@H](Cc3ccc(OCC(=O)O)cc3)NC(=O)[C@H](Cc3ccc(-c4ccccc4)cc3)NC(=O)[C@H](Cc3ccc(OCC(=O)O)cc3)NC2=O)c1 [Compound 2646] ({CH2CO}-[Ala(2-furyl)]Y(Carboxymethyl)D[Phe(3-Me)]Y(Carboxymethyl)[Bip]Y(Carboxymethyl)[Orn][dL][Dab][Cha][Val(3-OH)]HC[Dab]-NH2; thioether N-14), which IC50 is on record?
**A.** 8.3 nM

**Q.** Cc1cccc(C[C@@H]2NC(=O)[C@H](CC(=O)O)NC(=O)[C@H](Cc3ccc(OCC(=O)O)cc3)NC(=O)[C@H](Cc3ccncc3)NC(=O)CSC[C@@H](C(=O)N[C@@H](CO)C(=O)NCCCN)NC(=O)[C@H](C(C)O)NC(=O)[C@H](C(C)(C)O)NC(=O)[C@H](CC3CCCCC3)NC(=O)[C@H](Cc3cnc[nH]3)NC(=O)[C@@H](CC(C)C)NC(=O)[C@H](CCCN)NC(=O)[C@H](Cc3ccc(OCC(=O)O)cc3)NC(=O)[C@H](Cc3ccc(-c4ccccc4)cc3)NC(=O)[C@H](Cc3ccc(OCC(=O)O)cc3)NC2=O)c1 (stereo partly drawn) [Compound 2647] ({CH2CO}-[4Pal]Y(Carboxymethyl)D[Phe(3-Me)]Y(Carboxymethyl)[Bip]Y(Carboxymethyl)[Orn][dL]H[Cha][Val(3-OH)][Thr(3ξ)]CS-{NH(CH2)3NH2}; thioether N-14) was tested. Which IC50 did it give?
**A.** 22.8 nM

**Q.** How did the IC50 turn out when Cc1cccc(C[C@@H]2NC(=O)[C@H](CC(=O)O)NC(=O)[C@H](Cc3ccc(OCC(=O)O)cc3)NC(=O)[C@H](CCN)NC(=O)CSC[C@@H](C(=O)N[C@@H](CO)C(=O)NCCCN)NC(=O)[C@H](C(C)O)NC(=O)[C@H](C(C)(C)O)NC(=O)[C@H](CC3CCCCC3)NC(=O)[C@H](Cc3cnc[nH]3)NC(=O)[C@@H](CC(C)C)NC(=O)[C@H](CCCN)NC(=O)[C@H](Cc3ccc(OCC(=O)O)cc3)NC(=O)[C@H](Cc3ccc(-c4ccccc4)cc3)NC(=O)[C@H](Cc3ccc(OCC(=O)O)cc3)NC2=O)c1 (stereo partly drawn) [Compound 2648] ({CH2CO}-[Dab]Y(Carboxymethyl)D[Phe(3-Me)]Y(Carboxymethyl)[Bip]Y(Carboxymethyl)[Orn][dL]H[Cha][Val(3-OH)][Thr(3ξ)]CS-{NH(CH2)3NH2}; thioether N-14) was run?
**A.** 98 nM

**Q.** For Cc1cccc(C[C@@H]2NC(=O)[C@H](CC(=O)O)NC(=O)[C@H](Cc3ccc(OCC(=O)O)cc3)NC(=O)[C@H](Cc3cnc[nH]3)NC(=O)CSC[C@@H](C(=O)N[C@@H](CCN)C(N)=O)NC(=O)[C@H](C(C)O)NC(=O)[C@H](C(C)(C)O)NC(=O)[C@H](CC3CCCCC3)NC(=O)[C@H](CCN)NC(=O)[C@@H](CC(C)C)NC(=O)[C@H](CCCN)NC(=O)[C@H](Cc3ccc(OCC(=O)O)cc3)NC(=O)[C@H](Cc3ccc(-c4ccccc4)cc3)NC(=O)[C@H](Cc3ccc(OCC(=O)O)cc3)NC2=O)c1 (stereo partly drawn) [Compound 2649] ({CH2CO}-HY(Carboxymethyl)D[Phe(3-Me)]Y(Carboxymethyl)[Bip]Y(Carboxymethyl)[Orn][dL][Dab][Cha][Val(3-OH)][Thr(3ξ)]C[Dab]-NH2; thioether N-14), which IC50 is on record?
**A.** 7.2 nM

**Q.** With Cc1cccc(C[C@@H]2NC(=O)[C@H](CC(=O)O)NC(=O)[C@H](Cc3ccc(OCC(=O)O)cc3)NC(=O)[C@H](Cc3cnc[nH]3)NC(=O)CSC[C@@H](C(=O)N[C@H](C)C(N)=O)NC(=O)[C@H](C(C)O)NC(=O)[C@H](C(C)(C)O)NC(=O)[C@H](CC3CCCCC3)NC(=O)[C@H](CCN)NC(=O)[C@@H](CC(C)C)NC(=O)[C@H](CCCN)NC(=O)[C@H](Cc3ccc(OCC(=O)O)cc3)NC(=O)[C@H](Cc3ccc(-c4ccccc4)cc3)NC(=O)[C@H](Cc3ccc(OCC(=O)O)cc3)NC2=O)c1 (stereo partly drawn) [Compound 2650] ({CH2CO}-HY(Carboxymethyl)D[Phe(3-Me)]Y(Carboxymethyl)[Bip]Y(Carboxymethyl)[Orn][dL][Dab][Cha][Val(3-OH)][Thr(3ξ)]C[dA]-NH2; thioether N-14) as the compound, how does the IC50 read?
**A.** 38.5 nM
